Reference: paper PMC8695447, “Novel Small Molecules Capable of Blocking mtRAS-Signaling Pathway” (Frontiers in Oncology, 2021)

How the values were obtained:
[1] = tested on: mtKRAS NSCLC cell; parameters: method as in earlier work; settings: ACK1 inhibitor; ref 37 (Tan et al.); cited from earlier work
[2] = tested on: OCI-AML3 (NRAS-Q61L); test: Anti-proliferation assay on OCI-AML3; assay type: cell-based, human; settings: Homo sapiens, OCI-AML-3; 72 h treatment; average with SD (n = 3, duplicate)
Description: (§1) Ba/F3-parental, OCI-AML3, U397 cells were purchased from DSMZ. MDA-MB-231, HCT-116, AsPC-1, H358, HT-29, SW480, and DU-145 cells were obtained from KCLB. MDA-MB-468 cells were obtained from ATCC. All cells were maintained in RPMI with 10% FBS and antibiotics. Cells were grown in a humidified 5% CO2 incubator at 37°C. Ba/F3-parental cells were grown in the presence of 10 ng/ml IL-3. NRAS-G12D or NRAS-G12V transformed Ba/F3 cell lines (Ba/F3-NRAS-G12D, and Ba/F3-NRAS-G12V, respectively) were cultured without IL-3, which were established by the procedure described as previously ([30]).
(§2) Approximately 3.0 × 10^3 cells/well were seeded in a 96-well cell culture plate. After stabilization, 1/3 serially diluted compound in DMSO was treated to the cell. […] All GI50 values were obtained in duplicate with three independent assays and averages with standard deviation are presented.

[3] = tested on: MDA-MB-231 (KRAS-G13D); test: Anti-proliferation assay on MDA-MB-231; assay type: cell-based; settings: Homo sapiens, MDA-MB-231; 72 h treatment; average with SD (n = 3, duplicate)
Description: as §1, §2

[4] = tested on: SW480 (KRAS-G12V); test: Anti-proliferation assay on SW480; assay type: cell-based; settings: Homo sapiens, SW480; 72 h treatment; average with SD (n = 3, duplicate)
Description: as §1, §2

[5] = tested on: Ba/F3-parental cells; test: Anti-proliferation assay (CellTiter Glo) on Ba/F3-parental; assay type: cell-based; settings: Mus musculus, BaF3; 72 h treatment; with 10 ng/ml IL-3; average with SD (n = 3, duplicate)
Description: as §1, §2

[6] = tested on: Ba/F3-NRAS-G12V cells; test: Anti-proliferation assay (CellTiter Glo) on Ba/F3-NRAS-G12V; assay type: cell-based; settings: Mus musculus, BaF3; 72 h treatment; average with SD (n = 3, duplicate)
Description: as §1, §2

[7] = tested on: MDA-MB-468 (KRAS, NRAS-wt); test: Anti-proliferation assay on MDA-MB-468; assay type: cell-based; settings: Homo sapiens, MDA-MB-468; 72 h treatment; average with SD (n = 3, duplicate)
Description: as §1, §2

[8] = tested on: HCT-116 (KRAS-G13D); test: Anti-proliferation assay on HCT-116; assay type: cell-based; settings: Homo sapiens, HCT-116; 72 h treatment; average with SD (n = 3, duplicate)
Description: as §1, §2

[9] = tested on: AsPC-1 (KRAS-G12D); test: Anti-proliferation assay on AsPC-1; assay type: cell-based; settings: Homo sapiens, ASPC1; 72 h treatment; average with SD (n = 3, duplicate)
Description: as §1, §2

[10] = tested on: DU-145 (KRAS-G12V); test: Anti-proliferation assay on DU-145; assay type: cell-based; settings: Homo sapiens, DU-145; 72 h treatment; average with SD (n = 3, duplicate)
Description: as §1, §2

[11] = tested on: HT-29 (KRAS-Q61L); test: Anti-proliferation assay on HT-29; assay type: cell-based; settings: Homo sapiens, HT-29; 72 h treatment; average with SD (n = 3, duplicate)
Description: as §1, §2

[12] = tested on: Ba/F3-NRAS-G12D cells; test: Anti-proliferation assay (CellTiter Glo) on Ba/F3-NRAS-G12D; assay type: cell-based; settings: Mus musculus, BaF3; 72 h treatment; average with SD (n = 3, duplicate)
Description: as §1, §2

[13] = tested on: H358 (KRAS-G12C); test: Anti-proliferation assay on H358; assay type: cell-based; settings: Homo sapiens, NCI-H358; 72 h treatment; average with SD (n = 3, duplicate)
Description: as §1, §2

[14] = tested on: U937 (KRAS, NRAS-wt); test: Anti-proliferation assay on U937; assay type: cell-based; settings: Homo sapiens, U-937; 72 h treatment; average with SD (n = 3, duplicate)
Description: as §1, §2

Compound | mtKRAS NSCLC cell migration and invasion [1] | GI50 [2] | GI50 [3] | GI50 [4] | GI50 [5] | GI50 [6] | GI50 [7] | GI50 [8] | GI50 [9] | GI50 [10] | GI50 [11] | GI50 [12] | GI50 [13] | GI50 [14]
COc1cc(Nc2c(C#N)cnc3cc(OCCCN4CCN(C)CC4)c(OC)cc23)c(Cl)cc1Cl [bosutinib] | suppressed | – | – | – | – | – | – | – | – | – | – | – | – | –
Cc1ccc(NC(=O)c2cccc(C(F)(F)F)c2)cc1N1Cc2cnc(Nc3cnn(C)c3)nc2N(C)C1=O [Compound 10, N-(4-Methyl-3-(1-methyl-7-((1-methyl-1H-pyrazol-4-yl)amino)-2-oxo-1,4-dihydropyrimido[4,5-d]pyrimidin-3(2H)-yl)phenyl)-3-(trifluoromethyl)benzamide] | – | 59 ± 7 nM | 50 ± 12 nM | 275 ± 29 nM | 630 ± 104 nM | 280 ± 79 nM | > 50000 nM | 68 ± 28 nM | 105 ± 34 nM | 51 ± 46 nM | 366 ± 152 nM | 193 ± 7 nM | 130 ± 9 nM | 2700 ± 668 nM
CCN1CCN(c2ccc(Nc3ncc4c(n3)N(C)C(=O)N(c3cc(NC(=O)c5cccc(C(F)(F)F)c5)ccc3C)C4)c(C(F)(F)F)c2)CC1 [Compound 8, N-(3-(7-((4-(4-Ethylpiperazin-1-yl)-2-(trifluoromethyl)phenyl)amino)-1-methyl-2-oxo-1,4-dihydropyrimido[4,5-d]pyrimidin-3(2H)-yl)-4-methylphenyl)-3-(trifluoromethyl)benzamide] | – | 687 ± 154 nM | 2790 ± 658 nM | 5790 ± 657 nM | 3920 ± 722 nM | 944 ± 112 nM | > 50000 nM | 5810 ± 965 nM | 6650 ± 102 nM | 3990 ± 566 nM | 2140 ± 109 nM | 1255 ± 6 nM | 8980 ± 246 nM | 6060 ± 2180 nM
